Results as given in patent US7825146B2, “Sulfonamide derivative having isoxazole ring” (Shionogi & Co., Ltd., priority 2003, dated 2010).

Columns and labels:
[1] = target: T1, MMP-12 (Homo sapiens, UniProt P39900); test: Assay for inhibitory activities on MMPs (fluorogenic MOCAc peptide substrate): MMP-12; type: biochemical; conditions: catalytic domain 100Phe-263Gly
T1 construct: In regard to MMP-12, catalytic domain(^100Phe˜^263Gly) was amplified with RT-PCR; His-tag; enterokinase digestion-site; made in house
T1 sequence (P39900 100-263): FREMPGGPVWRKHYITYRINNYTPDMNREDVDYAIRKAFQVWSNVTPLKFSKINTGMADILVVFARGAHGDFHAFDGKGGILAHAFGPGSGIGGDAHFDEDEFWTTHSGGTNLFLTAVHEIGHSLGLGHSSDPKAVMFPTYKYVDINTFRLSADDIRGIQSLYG
Procedure: (§1) In regard to MMP-12, catalytic domain(^100Phe˜^263Gly) was amplified with RT-PCR from Human Placenta Total RNA. This was cloned in Escherichia. coli expression vector pTrc99AHE inserted with His-tag sequence and enterokinase digestion-site, induced and expressed by IPTG (Isopropyl-β-D-thiogalactopyranoside) and expressed in a insoluble fraction. Isolation of MMP-12 from an insoluble fraction was carried out by dissolving in modifier (6M urea) by a usual method and purification with metal chelate chromatography (Ni Chelateing Sepharose). And then removing modifier (6M urea) with dialysis and refolding of the enzyme spontaneously gave activated MMP-12.
(§2) The enzymatic activity on MMPs was analyzed by the method described in “C. Graham Knight, Frances Willenbrock and Gillian Murphy: A novel coumarin-labelled peptide for sensitive continuous assays of the matrix metalloproteinases: FEBS LETT., 296, (1992), 263-266”. The substrate: MOCAc-Pro-Leu-Gly-Leu-A2Pr(DNP)-Ala-Arg-NH2 was purchased from Peptide Institute, Inc., Osaka, Japan. The measurement of the inhibitory activities (IC50) was carried out by the following four methods; • (A) Reaction with substrate, enzyme (MMPs) and inhibitor • (B) Reaction with substrate and inhibitor, without enzyme • (C) Reaction with substrate and enzyme (MMPs), without inhibitor • (D) Reaction with substrate only IC50 values were calculated by using the following formula and each fluorescence values of above four methods (A to D).
(§3) The value of inhibitory activity against MMP-2, MMP-8, MMP-9, MMP-12, and MMP-13 measured by above mentioned methods are shown in Table 36, 37, 38, 39, and 40 respectively.

[2] = target: T2, MMP-9 (Homo sapiens, UniProt P14780); test: Assay for inhibitory activities on MMPs (fluorogenic MOCAc peptide substrate): MMP-9; type: biochemical; conditions: from HT1080 cells, activated by TPCK-Trypsin
T2 construct: made in house; host or cells: endogenous secretion from human fibrosarcoma HT1080 cells (TPA-stimulated), purified from conditioned medium
T2 sequence (P14780 107-707 limits assumed): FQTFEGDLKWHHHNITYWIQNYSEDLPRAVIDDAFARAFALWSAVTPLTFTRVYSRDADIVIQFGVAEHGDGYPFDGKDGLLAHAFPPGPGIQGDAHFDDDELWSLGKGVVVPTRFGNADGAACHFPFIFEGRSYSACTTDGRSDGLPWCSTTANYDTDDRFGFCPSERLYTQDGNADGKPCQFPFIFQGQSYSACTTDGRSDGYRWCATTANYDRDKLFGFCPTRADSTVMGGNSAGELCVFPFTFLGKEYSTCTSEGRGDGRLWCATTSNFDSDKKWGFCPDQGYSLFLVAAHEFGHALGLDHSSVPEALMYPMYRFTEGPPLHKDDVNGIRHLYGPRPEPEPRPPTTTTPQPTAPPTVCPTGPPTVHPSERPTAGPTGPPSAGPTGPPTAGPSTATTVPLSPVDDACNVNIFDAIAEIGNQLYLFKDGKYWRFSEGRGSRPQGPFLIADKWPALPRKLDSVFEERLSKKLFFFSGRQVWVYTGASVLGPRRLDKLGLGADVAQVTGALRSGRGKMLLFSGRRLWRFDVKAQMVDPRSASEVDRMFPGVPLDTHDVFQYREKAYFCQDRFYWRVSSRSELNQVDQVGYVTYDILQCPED
Excerpt: MMP-9 was isolated and purified by procedures described in as follows: Yasunori Okada, Yukio Gonoji, Katsumi Naka, Katsuro Tomita, Isao Nakanishi, Kazushi Iwata, Kyoko Yamashita, and Taro Hayakawa: Matrix metalloproteinase 9 (92-kDa gelatinase/type IV collagenase) from HT1080 human fibrosarcoma cells. Purification and activation of the precursor and enzymic properties J. Biol. Chem., 1992, 267 21712-21719, in combination with others: 1) Yasunori Okada, Tatsuhisa Morodomi, Jan J, Enghild, ko Suzuki, Atsushi Yasui, Isao Nakanishi, Guy Salvesen and Hideaki Nagase: Matrix metalloproteinase 2 from human rheumatoid synovial fibroblasts. Purification and activation of the precursor and enzymic properties. Eur. J. Biochem. 1990, 194 721-730; 2) Robin V Ward, Rosalind M Hembry; John J Reynolds and Gillian Murphy: The purification of tissue inhibitor of metalloproteinase-2 from its 72 kDa progelatinase complex. Biochem. J. 1991 278 179-187. In detail, human fibrosarcoma ATCC HT1080 cell line was cultured to confluent in Dulbecco's Modified Medium (DMEM) containing 10% fetal-calf serum at 37° C. for 48 hours. Subsequently, the medium of confluent culture was changed to serum-free DMEM medium. To obtain MMP-9, Phorbol-12-myristate-13-acetate (TPA) must be added to this serum-free DMEM medium at a concentration of 50 ng/ml. The TPA treated medium was centrifuged at 3000 rpm for 15 min and the supernatant was concentrated to 450 ml by a Toyo-Roshi UP-20 apparatus with an ultrafiltration membrane. Then, proMMP-9 in this concentrated solution was purified by using columns of Gelatin-Sepharose and Concanavalin A-Sepharose. The pool containing proMMP-9 was dialyzed, concentrated (Toyo-Roshi UP-20) and applied to columns of Sephacryl S-200 and Green A matrix for the separation from TIMPs. The obtained proMMP-9 fraction was activated by TPCK-Trypsin (Final conc. 3 μg/50 μl React Mix.).
as §2, §3

[3] = target: T3, MMP-13 (Homo sapiens, UniProt P45452); test: Assay for inhibitory activities on MMPs (fluorogenic MOCAc peptide substrate): MMP-13; type: biochemical; conditions: Table 40
T3 construct: catalytic domain (^104Tyr˜^267Gly) was amplified with RT-PCR; His-tag; enterokinase digestion-site; made in house
Procedure: as §1, with “MMP-13, mRNA was prepared from carcinoma cell SW1353 derived from human cartilage stimulate by IL-1, TNF and” for “MMP-12,”, “domain (^104Tyr˜^267Gly)” for “domain(^100Phe˜^263Gly)”, “RT-PCR.” for “RT-PCR from Human Placenta Total RNA.”, “MMP-13” for “MMP-12”, “dialyze” for “dialysis”, “MMP-13.” for “MMP-12.”
as §2, §3

[4] = target: T4, MMP-8 (Homo sapiens, UniProt P22894); test: Assay for inhibitory activities on MMPs (fluorogenic MOCAc peptide substrate): MMP-8; type: biochemical; conditions: catalytic domain 99Phe-262Gly
T4 construct: In regard to MMP-8, catalytic domain (^99Phe˜^262Gly) was amplified with PCR; His-tag; enterokinase digestion-site; made in house
T4 sequence (P22894 99-262): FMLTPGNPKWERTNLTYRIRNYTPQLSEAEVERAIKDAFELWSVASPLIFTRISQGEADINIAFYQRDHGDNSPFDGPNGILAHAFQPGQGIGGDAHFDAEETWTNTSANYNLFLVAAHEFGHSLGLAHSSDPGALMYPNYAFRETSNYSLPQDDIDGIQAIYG
Excerpt: In regard to MMP-8, catalytic domain (^99Phe˜^262Gly) was amplified with PCR using commercial available Human Bone Marrow cDNA. This was cloned in Escherichia. coli expression vector pTrc99AHE inserted with His-tag sequence and enterokinase digestion-site, induced and expressed by IPTG (Isdpropyl-β-D-thiogalactopyranoside) and expressed in a insoluble fraction (Thau F. Ho, M. Walid Qoronfleh, Robert C. Wahl, Trica A. Pulvino, Karen J. Vavra, Joe Falvo, Tracey M. Banks, Patricia G. Brake and Richard B. Ciccarelli: Gene expression, purification and characterization of recombinant human neutrophil collagenase. Gene 146, (1994) 297-301, Prepared by the a improved method of this material). Isolation of MMP-8 from an insoluble fraction was carried out by dissolving in modifier (6M urea) by a usual method and purification with metal chelate chromatography. And then removing modifier (6M urea) with dialysis and refolding of the enzyme spontaneously gave activated MMP-8.
as §2, §3

[5] = target: T5, MMP-2 (Homo sapiens, UniProt P08253); test: Assay for inhibitory activities on MMPs (fluorogenic MOCAc peptide substrate): MMP-2; type: biochemical; conditions: MMP-2 purchased from Calbiochem-Novabiochem
T5 construct: purchased Calbiochem-Novabiochem International, Inc
T5 sequence (P08253 110-660): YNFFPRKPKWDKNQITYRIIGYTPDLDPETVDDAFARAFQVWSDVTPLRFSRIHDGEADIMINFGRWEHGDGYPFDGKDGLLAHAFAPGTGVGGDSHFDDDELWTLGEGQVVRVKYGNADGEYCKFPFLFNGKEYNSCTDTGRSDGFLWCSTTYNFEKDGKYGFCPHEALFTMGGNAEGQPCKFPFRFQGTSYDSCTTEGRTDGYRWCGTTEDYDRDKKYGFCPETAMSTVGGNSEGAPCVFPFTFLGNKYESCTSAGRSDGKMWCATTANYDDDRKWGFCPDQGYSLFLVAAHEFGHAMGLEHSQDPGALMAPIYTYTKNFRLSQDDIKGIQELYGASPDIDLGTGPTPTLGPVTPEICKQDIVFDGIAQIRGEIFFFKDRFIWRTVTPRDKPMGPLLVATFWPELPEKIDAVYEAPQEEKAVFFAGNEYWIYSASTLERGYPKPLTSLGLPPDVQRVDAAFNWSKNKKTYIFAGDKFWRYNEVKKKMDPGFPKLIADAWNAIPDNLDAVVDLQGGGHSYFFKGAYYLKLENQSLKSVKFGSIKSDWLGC
Procedure: MMP-2 was purchased from Calbiochem-Novabiochem International, Inc.
as §2, §3

SMILES | IC50 [1] | melting point | IC50 [2] | IC50 [3] | IC50 [4] | IC50 [5]
Cc1ccc(-c2cc(-c3ccc(S(=O)(=O)N[C@H](C)C(=O)O)cc3)no2)cc1 [Example C-1] | 0.000707 µM | 218 to 221 °C | – | – | – | –
CC(C)[C@@H](NS(=O)(=O)c1ccc(-c2cc(-c3ccc(SC(F)(F)F)cc3)no2)cc1)C(=O)O [Example A-32] | 0.000463 µM | – | 0.000609 µM | 0.000193 µM | – | –
CC(C)[C@@H](NS(=O)(=O)c1ccc(-c2cc(-c3ccc(Cl)c(F)c3)on2)cc1)C(=O)O [Example C-36] | 0.000245 µM | – | 0.000741 µM | – | – | –
CC(C)[C@@H](NS(=O)(=O)c1ccc(-c2cc(-c3ccc(OC(F)(F)F)cc3)no2)cc1)C(=O)O [Example A-18] | 0.000376 µM | – | 0.00052 µM | 0.000263 µM | – | 0.0674 nM
Cc1ccc(-c2cc(-c3ccc(S(=O)(=O)N[C@H](Cc4ccccc4)C(=O)O)cc3)no2)s1 [Example C-124] | – | – | 0.000585 µM | 0.000528 µM | 0.00178 µM | 0.0926 nM
CSc1ccc(-c2cc(-c3ccc(S(=O)(=O)N[C@H](C)C(=O)O)cc3)no2)cc1 [Example C-4] | 0.000377 µM | – | – | 0.000404 µM | – | 0.0934 nM
CC(C)[C@@H](NS(=O)(=O)c1ccc(-c2cc(-c3ccc(Cl)s3)on2)cc1)C(=O)O [Example C-33] | 0.000535 µM | – | 0.000467 µM | – | 0.000781 µM | –
Cc1ccc(-c2cc(-c3ccc(S(=O)(=O)N[C@@H](C(=O)O)C(C)C)cc3)no2)s1 [Example C-29] | 0.000368 µM | – | 0.00034 µM | 0.000701 µM | 0.000567 µM | 0.0449 nM
Cc1ccc(-c2cc(-c3ccc(S(=O)(=O)N[C@@H](C(=O)O)C(C)C)cc3)on2)s1 [Example A-33] | – | – | – | – | 0.00291 µM | 0.0971 nM

Other lines, results leading:

IC50 [1] | melting point | IC50 [2] | IC50 [3] | IC50 [4] | IC50 [5] | SMILES
0.000366 µM | – | 0.00092 µM | – | – | – | CC(C)[C@@H](NS(=O)(=O)c1ccc(-c2cc(-c3ccc(Cl)cc3)on2)cc1)C(=O)O [Example C-20]
0.000201 µM | – | – | 0.000282 µM | 0.0039 µM | 0.0619 nM | CSc1ccc(-c2cc(-c3ccc(S(=O)(=O)N[C@@H](C(=O)O)C(C)C)cc3)no2)cc1 [Example C-10]
0.000316 µM | – | 0.000532 µM | 0.000266 µM | – | 0.0832 nM | CCc1ccc(-c2cc(-c3ccc(S(=O)(=O)N[C@@H](C(=O)O)C(C)C)cc3)no2)cc1 [Example C-12]
0.000196 µM | – | 0.00032 µM | 0.000223 µM | – | – | CC(C)[C@@H](NS(=O)(=O)c1ccc(-c2cc(-c3ccc(OC(F)(F)F)cc3)on2)cc1)C(=O)O [Example C-25]
0.000216 µM | – | – | 0.00015 µM | – | 0.0533 nM | CCCc1ccc(-c2cc(-c3ccc(S(=O)(=O)N[C@@H](C(=O)O)C(C)C)cc3)no2)cc1 [Example C-14]
0.000275 µM | – | 0.000706 µM | – | – | – | CC(C)[C@@H](NS(=O)(=O)c1ccc(-c2cc(-c3ccc(Br)cc3)on2)cc1)C(=O)O [Example C-22]
0.00015 µM | – | – | 0.000136 µM | – | 0.049 nM | CC(C)c1ccc(-c2cc(-c3ccc(S(=O)(=O)N[C@@H](C(=O)O)C(C)C)cc3)no2)cc1 [Example C-15]
0.000687 µM | – | – | 0.000328 µM | – | 0.0767 nM | CC(C)c1ccc(-c2cc(-c3ccc(S(=O)(=O)N[C@@H](C(=O)O)C(C)C)cc3)on2)cc1 [Example A-16]
